B1: Hepatic sodium/bile acid cotransporter (Homo sapiens) (protein)
chain: MEAHNASAPFNFTLPPNFGKRPTDLALSVILVFMLFFIMLSLGCTMEFSKIKAHLWKPKGLAIALVAQYGIMPLTAFVLGKVFRLKNIEALAILVCGCSPGGNLSNVFSLAMKGDMNLSIVMTTCSTFCALGMMPLLLYIYSRGIYDGDLKDKVPYKGIVISLVLVLIPCTIGIVLKSKRPQYMRYVIKGGMIIILLCSVAVTVLSAINVGKSIMFAMTPLLIATSSLMPFIGFLLGYVLSALFCLNGRCRRTVSMETGCQNVQLCSTILNVAFPPEVIGPLFFFPLLYMIFQLGEGLLLIAIFWCYEKFKTPKDKTKMIYTAATTEETIPGALGNGTYKGEDCSPCTA

Key:
HepG2 2.2.15 = experiment: Cytotoxicity against human HepG2.2.15 cells assessed as reduction in cell viability incubated for 12 hrs followed by replacement of fresh medium containing compound and measured after 2 days by CCK-8 assay; format: functional
[1] = Selectivity index, ratio of CC50 for cytotoxicity against human HepG2.2.15 cells to EC50 for HBV infected in human HepG2.2.15 cells; format: toxicity, cell-based; details: read-out: Ratio CC50/EC50
Hepatitis B virus = experiment: Antiviral activity against Hepatitis B virus infected in human HepG2.2.15 cells assessed as inhibition of viral DNA synthesis incubated for 2 days followed by replacement of fresh medium containing compound and measured at day 10 by RT-PCR analysis; format: functional, organism-based
[2] = substrate: [H][C@@]12C[C@H](O)CC[C@]1(C)[C@@]1([H])CC[C@@]3(C)[C@@]([H])(CC[C@]3([H])[C@H](C)CCC(=O)OCCCOP(=O)(COCCn3cnc4c(N)ncnc43)OCCCOC(=O)[C@H](N)CC(C)C)[C@]1([H])[C@@H](O)C2; experiment: (§1) Substrate activity at human NTCP expressed in HEK293 cells harboring pEGFP assessed as Km for transporter-mediated drug uptake measured for 30 mins in presence of sodium chloride by UPLC-MS/MS analysis; format: cell-based
[3] = substrate: [H][C@@]12C[C@H](O)CC[C@]1(C)[C@@]1([H])CC[C@@]3(C)[C@@]([H])(CC[C@]3([H])[C@H](C)CCC(=O)OCCCOP(=O)(COCCn3cnc4c(N)ncnc43)OCCCOC(=O)[C@H](N)[C@@H](C)CC)[C@]1([H])[C@@H](O)C2; experiment: as §1; format: cell-based
[4] = substrate: [H][C@@]12C[C@H](O)CC[C@]1(C)[C@@]1([H])CC[C@@]3(C)[C@@]([H])(CC[C@]3([H])[C@H](C)CCC(=O)OCCCOP(=O)(COCCn3cnc4c(N)ncnc43)OCCCOC(=O)[C@H](N)C(C)C)[C@]1([H])[C@@H](O)C2; experiment: as §1; format: cell-based
[5] = substrate: [H][C@@]12C[C@H](O)CC[C@]1(C)[C@@]1([H])CC[C@@]3(C)[C@@]([H])(CC[C@]3([H])[C@H](C)CCC(=O)OCCCOP(=O)(COCCn3cnc4c(N)ncnc43)OCCCOC(=O)[C@@H](C)N)[C@]1([H])[C@@H](O)C2; experiment: as §1; format: cell-based

Molecule | CC50 (HepG2 2.2.15) [µM] | selectivity ratio [1] | EC50 (Hepatitis B virus) [µM] | also measured
C[C@H](CCC(=O)OCCCOP(=O)(COCCn1cnc2c(N)ncnc21)OCCCOC(=O)[C@@H](C)N)[C@H]1CC[C@H]2[C@@H]3CC[C@@H]4C[C@H](O)CC[C@]4(C)[C@H]3C[C@H](O)[C@]12C (some centres undefined) | 1050 | 48.8 | 21.5 | 
CC[C@H](C)[C@@H](N)C(=O)OCCCOP(=O)(COCCn1cnc2c(N)ncnc21)OCCCOC(=O)CC[C@@H](C)[C@H]1CC[C@H]2[C@@H]3CC[C@@H]4C[C@H](O)CC[C@]4(C)[C@H]3C[C@H](O)[C@]12C (some centres undefined) | 1880 | 42.5 | 44.1 | 
CC(C)C[C@H](N)C(=O)SCCCOP(=O)(COCCn1cnc2c(N)ncnc21)OCCCOC(=O)CC[C@@H](C)[C@H]1CC[C@H]2[C@@H]3[C@@H](O)C[C@@H]4C[C@H](O)CC[C@]4(C)[C@H]3CC[C@]12C (some centres undefined) | 2070 | 140 | 14.8 | 
CC(C)C[C@@H](N)C(=O)OCCCOP(=O)(COCCn1cnc2c(N)ncnc21)OCCCOC(=O)CC[C@@H](C)[C@H]1CC[C@H]2[C@@H]3CC[C@@H]4C[C@H](O)CC[C@]4(C)[C@H]3C[C@H](O)[C@]12C (some centres undefined) | 876 | 89.7 | 9.77 | 
C[C@H](CCC(=O)OCCCOP(=O)(COCCn1cnc2c(N)ncnc21)OCCCSC(=O)[C@@H](N)Cc1ccccc1)[C@H]1CC[C@H]2[C@@H]3[C@@H](O)C[C@@H]4C[C@H](O)CC[C@]4(C)[C@H]3CC[C@]12C (some centres undefined) | 3040 | 103 | 29.4 | 
CC(C)[C@@H](N)C(=O)OCCCOP(=O)(COCCn1cnc2c(N)ncnc21)OCCCOC(=O)CC[C@@H](C)[C@H]1CC[C@H]2[C@@H]3CC[C@@H]4C[C@H](O)CC[C@]4(C)[C@H]3C[C@H](O)[C@]12C (some centres undefined) | 666 | 59.2 | 11.2 | 
CC[C@H](C)[C@@H](N)C(=O)OCCCOP(=O)(COCCn1cnc2c(N)ncnc21)OCCCOC(=O)CC[C@@H](C)[C@H]1CC[C@H]2[C@@H]3[C@@H](O)C[C@@H]4C[C@H](O)CC[C@]4(C)[C@H]3CC[C@]12C (some centres undefined) | 378 | 528 | 0.65 | 
CC(C)[C@H](N)C(=O)SCCCOP(=O)(COCCn1cnc2c(N)ncnc21)OCCCOC(=O)CC[C@@H](C)[C@H]1CC[C@H]2[C@@H]3[C@@H](O)C[C@@H]4C[C@H](O)CC[C@]4(C)[C@H]3CC[C@]12C (some centres undefined) | 1840 | 19 | 97 | 
C[C@H](CCC(=O)OCCCOP(=O)(COCCn1cnc2c(N)ncnc21)OCCCSC(=O)[C@@H](N)Cc1ccccc1)[C@H]1CC[C@H]2[C@@H]3CC[C@@H]4C[C@H](O)CC[C@]4(C)[C@H]3C[C@H](O)[C@]12C (some centres undefined) | 789 | 41.9 | 18.8 | 
C[C@H](CCC(=O)OCCCOP(=O)(COCCn1cnc2c(N)ncnc21)OCCCOC(=O)[C@@H](C)N)[C@H]1CC[C@H]2[C@@H]3[C@@H](O)C[C@@H]4C[C@H](O)CC[C@]4(C)[C@H]3CC[C@]12C (some centres undefined) | 489 | 90 | 5.44 | 
CC(C)[C@@H](N)C(=O)OCCCOP(=O)(COCCn1cnc2c(N)ncnc21)OCCCOC(=O)CC[C@@H](C)[C@H]1CC[C@H]2[C@@H]3[C@@H](O)C[C@@H]4C[C@H](O)CC[C@]4(C)[C@H]3CC[C@]12C (some centres undefined) | 407 | 122 | 3.34 | 
CC(C)[C@H](N)C(=O)SCCCOP(=O)(COCCn1cnc2c(N)ncnc21)OCCCOC(=O)CC[C@@H](C)[C@H]1CC[C@H]2[C@@H]3CC[C@@H]4C[C@H](O)CC[C@]4(C)[C@H]3C[C@H](O)[C@]12C (some centres undefined) | 1020 | 62.5 | 16.4 | 
B1 |  |  |  | Km [2]: 45.5 µM; Vmax [2]: 9.61 µmol/min/mg; Km [3]: 102 µM; Vmax [3]: 6.86 µmol/min/mg; Km [4]: 113 µM; Vmax [4]: 7.95 µmol/min/mg; Km [5]: 48.2 µM; Vmax [5]: 8.28 µmol/min/mg

— ChEMBL document CHEMBL4346741, “Synthesis, pharmacological evaluation, and mechanistic study of adefovir mixed phosphonate derivatives bearing cholic acid and l-amino acid moieties for the treatment of HBV” (Bioorg Med Chem, 2019)
